Columns and labels:
Format in all cases: cell-based
MM.1S cells = assay: Human myeloma cell line MM.1S proliferation suppression test; settings: MM1.S, 72 h, compound 10 μM, 3 days, WST-1 or WST-8, read-out: cell survival rate (% of control) MM.1S
Protocol: Example 51: Human Myeloma Cell Line MM.1S Proliferation Suppression Test
MM.1S cells (ATCC, CRL-2974) were suspended in 10% fetal calf serum (Thermo Fisher Scientific)-containing RPMI1640 medium (ATCC, hereinafter abbreviated as medium B), and diluted as appropriate with 0.4% trypan blue solution (Sigma-Aldrich Co. LLC.). The number of viable cells was counted with a hemocytometer (ERMA INC.). It was diluted with medium B such that the value obtained was 2×10^5 cells/mL. On the other hand, 50 μL of a solution obtained by diluting 4 mM DMSO solution of the test compound 200-fold with medium B was added to each well of a Falcon 96-well flat bottom plate (Corning Incorporated), and the above-mentioned cell suspension was dispensed at 50 μL/well (final concentration of test compound 10 μM). 50 μL of a solution obtained by diluting DMSO 200-fold with medium B was added to the control well. After culturing at 37° C. in a 5% CO2 stream for 3 days, the cell proliferation activity was measured using WST-1 (DOJINDO LABORATORIES) or WST-8 Kit (KISHIDA CHEMICAL Co., Ltd.) and according to each instruction manual attached thereto.

Daudi cells = assay: Human Burkitt lymphoma cell line Daudi proliferation suppression test; settings: 72 h, compound 10 μM, 3 days, WST-8, read-out: cell survival rate (% of control) Daudi
Excerpt: Example 54: Human Burkitt Lymphoma Cell Line Daudi Proliferation Suppression Test
(§1) Daudi cells (National Institutes of Biomedical Innovation, Health and Nutrition (NIBIOHN), JCRB9071) were suspended in medium B, and diluted as appropriate with 0.4% trypan blue solution (Sigma-Aldrich Co. LLC.). The number of viable cells was counted with a hemocytometer (ERMA INC.). A cell suspension obtained by diluting with medium B such that the value obtained was 1.3×10^5 cells/mL was dispensed into a Falcon 96 well flat bottom plate (Corning Incorporated) at 75 μL/well, and culture was started at 37° C. under 5% CO2 stream. The next day, a solution obtained by diluting 4 mM DMSO solution of the test compound 100-fold with medium B was added by 25 μL to each well (final concentration of test compound 10 μM). 25 μL of a solution obtained by diluting DMSO 100-fold with medium B was added to the control well. After culturing at 37° C. in a 5% CO2 stream for 3 days, the cell proliferation activity was measured according to the instruction manual attached to WST-8 Kit (KISHIDA CHEMICAL Co., Ltd.).

Pfeiffer cells = assay: Human diffuse large B-cell lymphoma cell line Pfeiffer proliferation suppression test; settings: 144 h, compound 10 μM, 3 days + re-plating with compound 3 days, WST-8, read-out: cell survival rate (% of control) Pfeiffer
Excerpt: Example 52: Human Diffuse Large B-Cell Lymphoma Cell Line Pfeiffer Proliferation Suppression Test
Pfeiffer cells (ATCC, CRL-2632) were suspended in medium B, and diluted as appropriate with 0.4% trypan blue solution (Sigma-Aldrich Co. LLC.). The number of viable cells was counted with a hemocytometer (Funakoshi Co., Ltd.). A cell suspension obtained by diluting with medium B such that the value obtained was 1.3×10^5 cells/mL was dispensed into a Falcon 96 well flat bottom plate (Corning Incorporated) at 75 μL/well, and culture was started at 37° C. under 5% CO2 stream. The next day, a solution obtained by diluting 4 mM DMSO solution of the test compound 100-fold with medium B was added by 25 μL to each well (final concentration of test compound 10 μM). 25 μL of a solution obtained by diluting DMSO 100-fold with medium B was added to the control well. After culturing at 37° C. in a 5% CO2 stream for 3 days, the cell culture medium was uniformly suspended with a multi channel pipette, 14 μL per well was transferred into another new Falcon 96 well flat bottom plate. A solution obtained by diluting 4 mM DMSO solution of the same test compound as the first time 400-fold with medium B was added by 86 μL to a total amount of 100 μL (final concentration of test compound 10 μM). After culturing at 37° C. in a 5% CO2 stream for 3 days, the cell proliferation activity was measured according to the instruction manual attached to WST-8 Kit (KISHIDA CHEMICAL Co., Ltd.).

REC-1 cells = assay: Human mantle cell lymphoma cell line REC-1 proliferation suppression test; settings: Rec1, 72 h, compound 10 μM, 3 days, WST-8, read-out: cell survival rate (% of control) REC-1
Protocol: Example 53: Human Mantle Cell Lymphoma Cell Line REC-1 Proliferation Suppression Test
as §1, with “REC-1” for “Daudi”, “(ATCC, CRL-3004)” for “(National Institutes of Biomedical Innovation, Health and Nutrition (NIBIOHN), JCRB9071)”, “(Funakoshi Co., Ltd.).” for “(ERMA INC.).”

Kasumi-7 cells = assay: Human acute lymphoblastic leukemia cell line Kasumi-7 proliferation suppression test; settings: 72 h, compound 10 μM, 3 days, WST-8, read-out: cell survival rate (% of control) Kasumi-7
Excerpt: Example 55: Human Acute Lymphoblastic Leukemia Cell Line Kasumi-7 Proliferation Suppression Test
Kasumi-7 cells (NIBIOHN, JCRB1401) were suspended in 20% fetal calf serum (Thermo Fisher Scientific, Inc.)-containing RPMI1640 medium (ATCC, hereinafter abbreviated as medium C), and diluted as appropriate with 0.4% trypan blue solution (Sigma-Aldrich Co. LLC.). The number of viable cells was counted with a hemocytometer (Funakoshi Co., Ltd.). A cell suspension obtained by diluting with medium C such that the value obtained was 1.3×10^5 cells/mL was dispensed into a Falcon 96 well flat bottom plate (Corning Incorporated) at 75 μL/well, and culture was started at 37° C. under 5% CO2 stream. The next day, a solution obtained by diluting 4 mM DMSO solution of the test compound 100-fold with medium C was added by 25 μL to each well (final concentration of test compound 10 μM). 25 μL of a solution obtained by diluting DMSO 100-fold with medium C was added to the control well. After culturing at 37° C. in a 5% CO2 stream for 3 days, the cell proliferation activity was measured according to the instruction manual attached to WST-8 Kit (KISHIDA CHEMICAL Co., Ltd.).

With `O=C1CCC(N2C(=O)c3ccccc3C2=O)C(=O)N1` (centres unmarked) [Thalidomide, reference compound] the viability at 10 µM (MM.1S cells) was 79%, the viability at 10 µM (Daudi cells) was 81% and the viability at 10 µM (Pfeiffer cells) was 104%. The viability at 10 µM (REC-1 cells) was 94% and the viability at 10 µM (Kasumi-7 cells) was 96%.

Source: US11299485B2, “Thiophene derivative and use thereof” (FUJIMOTO CO., LTD., priority 2018, dated 2022)
